Assay results published in patent US9968646B2, “Method for treatment of prostatic hyperplasia and/or ameliorating urinary disturbance with banana flower extract” (TCI Co., Ltd., priority 2014, dated 2018).

Assays:
[1] = system: LNCap human prostate cancer cell lines; experiment: MTT survival rate of LNCap cells stimulated by testosterone; type: cell-based
Description: In one embodiment, LNCap human prostate cancer cell lines (BCRC 60088) purchased from Bioresource Collection and Research Center (BCRC) are used. 2×10^4 LNCap cells/well are placed in the 96-well plate and cultured for 24 hr. LNCap cells treated with testosterone and various concentrations (0.5 mg/mL and 2.0 mg/mL) of the banana flower extract, and co-cultured for 3 days. LNCap cells are treated with the banana flower extract without testosterone as negative control, and LNCap cells are treated with testosterone without the banana flower extract as vehicle control. The survival rate of LNCap cells is evaluated using the MTT assay, LNCap cells are treated with 1 mg/mL MTT (3-[4,5-dimethyl thiazol-2-yl]-2,5diphenyl tetrazolium bromide) for 2 hr, and dimethyl sulfoxide (DMSO) is added to dissolve blue formazan crystals. An absorbance is measured using a reader at the wavelength of 570 nm.

[2] = system: dihydrotestosterone synthesis in LNCap cells; experiment: Dihydrotestosterone level (ELISA) in LNCap cells stimulated by testosterone; type: cell-based, human; settings: co-treatment of testosterone and 0.2 mg/mL finasteride; testosterone alone = 100%
Description: 1×10^5 LNCap cells/well are cultured with RPMI 1640 containing 10% FBS and 1% sodium pyruvate in 9-cm culture plate for 36 hr. […] And all LNCap cells are stimulated by 10 μg/mL testosterone.
Cell lysis is processed prior to analysis of dihydrotestosterone level: LNCap cells are dispersed with typsin and centrifuged to collect the suspension cells, the suspension cells are washed with cold PBS, and the suspension cells are resuspended in PBS(1×) and sonicated 4 times; or LNCap cells are frozen at −20° C. or lower, and stirred frequently until thawed for 3 times to destroy cells. The destroyed cells are centrifuged at 150× g at 2-8° C. for 10 min to remove the cell debris. Finally, dihydrotestosterone ELISA Kit (Uscn Life science Inc.) is used to detect dihydrotestosterone level.
LNCap cells are treated with the banana flower extract of the present invention and testosterone as above-mentioned method, LNCap cells treated with the banana flower extract without testosterone as negative control, and LNCap cells treated with testosterone without the banana flower extract as vehicle control, are detected dihydrotestosterone level. […] As co-treating with testosterone and the banana flower extract (2 mg/mL), the dihydrotestosterone synthesis rate of LNcap cells is decreased about 30%. […]

| SMILES | survival rate of LNcap cells ([1]; testosterone alone, without testosterone = 100%) | LNcap cell proliferation stimulated by testosterone ([1]; co-treatment of testosterone and 0.2 mg/mL finasteride) | reduction of dihydrotestosterone synthesis rate [2] [%] |
| --- | --- | --- | --- |
| C[C@]12CC[C@H]3[C@@H](CCC4=CC(=O)CC[C@@]43C)[C@@H]1CC[C@@H]2O [testosterone] | about 110% | – | – |
| CC(C)(C)NC(=O)[C@H]1CC[C@H]2[C@@H]3CC[C@H]4NC(=O)C=C[C@]4(C)[C@H]3CC[C@]12C [finasteride] | – | slightly inhibit | 10 |
